According to US11787837B2, “DCHBS-active esters of PEG compounds and their use” (Novo Nordisk A/S, priority 2016, dated 2023):
Each block holds one compound with its values, some of them ahead of it.

Experiment: Hydrolytic stability of activated side chains (hydrolysis at pH ~10.3, UPLC/HPLC area comparison at 210 nm)
Assay type: physicochemical
Conditions: for hydrolytic stability (in words): basic conditions, pH 10.3; for activated side chain still remaining: pH 10.3, hydrolysis times around 1100-1300 minutes
Description: 0.1 mmol of each activated side chain was dissolved in 1.0 mL NMP. To this solution was added 5 mL 1M NaHCO3 buffer solution adjusted to pH 10.0 with NaOH. Solution was stirred (pH ˜10.3) with aliquots being taken at different time intervals to determine to which extent the various activated side chains were hydrolysed.
The reaction mixtures were analysed by UPLC (Example no. 2 and E—UPLC_A_1) and HPLC (Example no. 1, B, C, and D—HPLC_A_1), and the percent of hydrolysis for the various side chains was estimated by area comparison in UV detection at 210 nm. In each example, the combined areas for released activation group (peak A) and non-activated side chain (peak B), was compared to area for activated side chain (peak C). The retention times (rt-A, rt-B, and rt-C for the various peaks (peak A, peak B, and peak C) for each side chain are summarised as follows; 1 (rt-A=1.94 min, rt-B=7.18-7.25 min, rt-C=7.48 min, HPLC_A_1), 2 (rt-A=0.48 min, rt-B=2.11 min, rt-C=2.29 min, UPLC_A_1), B (only rt-B detected at time point for analysis), C (rt-A=4.40 min, rt-B=7.25 min, HPLC_A_1), D (rt-A=4.01 min, rt-B=7.25 min, rt-C=10.16 min, HPLC_A_1), E (rt-A=2.08 min, rt-B=2.10 min, rt-C=2.10 min, UPLC_A_1).
The hydrolytic stability of the activated side chains of Examples 1 and 8B to 8D was tested. The hydrolysis protocol from Example 9 was used for the stability test.

[1] = Table 5, hydrolysis time 1380 min, method UPLC_A_4

SMILES: O=C(O)CCCCCCCCCCCCCCCCCCC(=O)NC[C@H]1CC[C@H](C(=O)N[C@@H](CCC(=O)NCCOCCOCC(=O)NCCOCCOCC(=O)Oc2c(Cl)cc(Cl)cc2S(=O)(=O)O)C(=O)O)CC1 [Example 1, 20-[[4-[[(1S)-1-carboxy-4-[2-[2-[2-[2-[2-[2-(2,4-dichloro-6-sulfo-phenoxy)-2-oxo-ethoxy]ethoxy]ethylamino]-2-oxo-ethoxy]ethoxy]ethylamino]-4-oxo-butyl]carbamoyl]cyclohexyl]methylamino]-20-oxo-icosanoic acid]
Hydrolysis (%) at pH 10.3 (Table 5, hydrolysis time 1269 min, method UPLC_A_1): 88.1%
hydrolytic stability (in words): much more stable against hydrolysis
Hydrolysis (%) at pH 10.3 (hydrolysis time 1269 min, NMP + 1M NaHCO3 buffer, pH ~10.3, HPLC_A_1): 88.1%
activated side chain still remaining: approximately 12%

SMILES: O=C(O)CCCCCCCCCCCCCCCCC(=O)N[C@@H](CCC(=O)NCCOCCOCC(=O)NCCOCCOCC(=O)Oc1c(Cl)cc(Cl)cc1S(=O)(=O)O)C(=O)O [Example 2, 18-[[(1S)-1-carboxy-4-[2-[2-[2-[2-[2-[2-(2,4-dichloro-6-sulfo-phenoxy)-2-oxo-ethoxy]ethoxy]ethylamino]-2-oxo-ethoxy]ethoxy]ethylamino]-4-oxo-butyl]amino]-18-oxo-octadecanoic acid]
hydrolytic stability (in words): much more stable against hydrolysis
Hydrolysis (%) at pH 10.3 (hydrolysis time 1070 min, NMP + 1M NaHCO3 buffer, pH ~10.3, UPLC_A_1): 88.1%
activated side chain still remaining: approximately 12%

SMILES: O=C(O)CCCCCCCCCCCCCCCCCCC(=O)NC[C@H]1CC[C@H](C(=O)N[C@@H](CCC(=O)NCCOCCOCC(=O)NCCOCCOCC(=O)ON2C(=O)CCC2=O)C(=O)O)CC1 [Example B, 20-[[4-[[(1S)-1-carboxy-4-[2-[2-[2-[2-[2-[2-(2,5-dioxopyrrolidin-1-yl)oxy-2-oxo-ethoxy]ethoxy]ethylamino]-2-oxo-ethoxy]ethoxy]ethylamino]-4-oxo-butyl]carbamoyl]cyclohexyl]methylamino]-20-oxo-icosanoic acid, reference compound]
hydrolytic stability (in words): hydrolytically very unstable
Hydrolysis (%) at pH 10.3 (hydrolysis time 0 min (within a minute), NMP + 1M NaHCO3 buffer, pH ~10.3, HPLC_A_1): Quantitative (more than 99% of the side chain being hydrolysed)

SMILES: O=C(O)CCCCCCCCCCCCCCCCCCC(=O)NC[C@H]1CC[C@H](C(=O)N[C@@H](CCC(=O)NCCOCCOCC(=O)NCCOCCOCC(=O)Oc2ccc(Cl)cc2Cl)C(=O)O)CC1 [Example C, 20-[[4-[[(1S)-1-carboxy-4-[2-[2-[2-[2-[2-[2-(2,4-dichlorophenoxy)-2-oxo-ethoxy]ethoxy]ethylamino]-2-oxo-ethoxy]ethoxy]ethylamino]-4-oxo-butyl]carbamoyl]cyclohexyl]methylamino]-20-oxo-icosanoic acid, reference compound]
hydrolytic stability (in words): hydrolyse very fast and almost quantitatively
Hydrolysis (%) at pH 10.3 (hydrolysis time 0.16 min, NMP + 1M NaHCO3 buffer, pH ~10.3, HPLC_A_1): Quantitative (more than 99% of the side chain being hydrolysed)

SMILES: O=C(O)CCCCCCCCCCCCCCCCCCC(=O)NC[C@H]1CC[C@H](C(=O)N[C@@H](CCC(=O)NCCOCCOCC(=O)NCCOCCOCC(=O)Oc2c(Cl)cccc2Cl)C(=O)O)CC1 [Example D, 20-[[4-[[(1S)-1-carboxy-4-[2-[2-[2-[2-[2-[2-(2,6-dichlorophenoxy)-2-oxo-ethoxy]ethoxy]ethylamino]-2-oxo-ethoxy]ethoxy]ethylamino]-4-oxo-butyl]carbamoyl]cyclohexyl]methylamino]-20-oxo-icosanoic acid, reference compound]
hydrolytic stability (in words): hydrolyse very fast and almost quantitatively
Hydrolysis (%) at pH 10.3 (hydrolysis time 2 min, NMP + 1M NaHCO3 buffer, pH ~10.3, HPLC_A_1): 93.4%

SMILES: O=C(O)CCCCCCCCCCCCCCCCC(=O)N[C@@H](CCC(=O)NCCOCCOCC(=O)NCCOCCOCC(=O)Oc1c(Cl)cc(S(=O)(=O)O)cc1Cl)C(=O)O [Example E, 18-[[(1S)-1-carboxy-4-[2-[2-[2-[2-[2-[2-(2,6-dichloro-4-sulfo-phenoxy)-2-oxo-ethoxy]ethoxy]ethylamino]-2-oxo-ethoxy]ethoxy]ethylamino]-4-oxo-butyl]amino]-18-oxo-octadecanoic acid, reference compound]
Hydrolysis (%) at pH 10.3 (hydrolysis time 2.5 min, NMP + 1M NaHCO3 buffer, pH ~10.3, UPLC_A_1): Quantitative (more than 99% of the side chain being hydrolysed)

Second part, the compound after the results:

Hydrolysis (%) at pH 10.3 [1]: 96%
SMILES: COCC(=O)Oc1c(Cl)cc(Cl)cc1S(=O)(=O)O [Example 8B, 3,5-dichloro-2-(2-methoxyacetyl)oxy-benzenesulfonic acid]

Hydrolysis (%) at pH 10.3 [1]: 60%
SMILES: CN(C)S(=O)(=O)c1cc(Cl)cc(Cl)c1OC(=O)COCCOCCNC(=O)COCCOCCNC(=O)CC[C@H](NC(=O)CCCCCCCCCCCCCCCCC(=O)O)C(=O)O [Example 8C]

Hydrolysis (%) at pH 10.3 (Table 5, hydrolysis time 1440 min, method UPLC_A_5): 67%
SMILES: C#CCOCCOCCOCCOCCC(=O)Oc1c(Cl)cc(Cl)cc1S(=O)(=O)O [Example 8D, 3,5-dichloro-2-[3-[2-[2-(2-prop-2-ynoxyethoxy)ethoxy]ethoxy]propanoyloxy]benzenesulfonic acid]
